We go through eleven compounds from patent US20240279214A1, “ALPHA4 BETA7 INEGRIN ANTAGONISTS AND USES THEREOF” (XinThera, Inc., priority 2022, published 2024).

Usually EC50 stands for the midpoint of the concentration-response curve.

The target in the assay is T1, a4b7 integrin interaction with MadCAM-1 (Homo sapiens, UniProt P13612+P26010).
T1 construct: capture of a4b7 integrin expressing cells, RPMI8866; endogenous in cells; host or cells: RPMI8866
T1 sequence (P13612 34-1032): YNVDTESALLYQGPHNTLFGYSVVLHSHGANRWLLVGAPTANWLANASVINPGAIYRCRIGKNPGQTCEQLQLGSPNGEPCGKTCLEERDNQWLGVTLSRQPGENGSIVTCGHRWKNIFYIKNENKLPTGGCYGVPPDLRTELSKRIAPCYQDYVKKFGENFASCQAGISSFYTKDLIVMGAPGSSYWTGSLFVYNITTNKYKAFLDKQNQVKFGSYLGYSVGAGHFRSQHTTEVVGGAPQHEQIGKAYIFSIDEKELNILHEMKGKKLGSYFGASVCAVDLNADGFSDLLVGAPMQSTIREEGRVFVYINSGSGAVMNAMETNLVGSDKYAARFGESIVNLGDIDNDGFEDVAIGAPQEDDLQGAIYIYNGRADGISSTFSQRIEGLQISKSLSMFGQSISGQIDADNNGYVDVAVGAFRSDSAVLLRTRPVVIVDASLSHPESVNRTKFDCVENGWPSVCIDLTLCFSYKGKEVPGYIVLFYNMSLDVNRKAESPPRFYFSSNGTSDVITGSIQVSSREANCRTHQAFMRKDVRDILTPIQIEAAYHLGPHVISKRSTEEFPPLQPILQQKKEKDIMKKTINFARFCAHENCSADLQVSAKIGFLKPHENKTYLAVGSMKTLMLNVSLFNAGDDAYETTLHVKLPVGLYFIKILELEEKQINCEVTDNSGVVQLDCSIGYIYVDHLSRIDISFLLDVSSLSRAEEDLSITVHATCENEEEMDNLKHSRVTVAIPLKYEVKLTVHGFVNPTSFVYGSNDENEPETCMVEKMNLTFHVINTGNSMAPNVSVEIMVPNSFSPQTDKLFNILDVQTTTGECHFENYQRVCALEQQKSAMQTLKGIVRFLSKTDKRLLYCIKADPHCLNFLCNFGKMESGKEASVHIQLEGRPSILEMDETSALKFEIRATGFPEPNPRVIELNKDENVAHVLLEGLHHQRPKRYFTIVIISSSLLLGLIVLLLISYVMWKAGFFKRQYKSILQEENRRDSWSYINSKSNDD
T1 sequence (P26010 20-798): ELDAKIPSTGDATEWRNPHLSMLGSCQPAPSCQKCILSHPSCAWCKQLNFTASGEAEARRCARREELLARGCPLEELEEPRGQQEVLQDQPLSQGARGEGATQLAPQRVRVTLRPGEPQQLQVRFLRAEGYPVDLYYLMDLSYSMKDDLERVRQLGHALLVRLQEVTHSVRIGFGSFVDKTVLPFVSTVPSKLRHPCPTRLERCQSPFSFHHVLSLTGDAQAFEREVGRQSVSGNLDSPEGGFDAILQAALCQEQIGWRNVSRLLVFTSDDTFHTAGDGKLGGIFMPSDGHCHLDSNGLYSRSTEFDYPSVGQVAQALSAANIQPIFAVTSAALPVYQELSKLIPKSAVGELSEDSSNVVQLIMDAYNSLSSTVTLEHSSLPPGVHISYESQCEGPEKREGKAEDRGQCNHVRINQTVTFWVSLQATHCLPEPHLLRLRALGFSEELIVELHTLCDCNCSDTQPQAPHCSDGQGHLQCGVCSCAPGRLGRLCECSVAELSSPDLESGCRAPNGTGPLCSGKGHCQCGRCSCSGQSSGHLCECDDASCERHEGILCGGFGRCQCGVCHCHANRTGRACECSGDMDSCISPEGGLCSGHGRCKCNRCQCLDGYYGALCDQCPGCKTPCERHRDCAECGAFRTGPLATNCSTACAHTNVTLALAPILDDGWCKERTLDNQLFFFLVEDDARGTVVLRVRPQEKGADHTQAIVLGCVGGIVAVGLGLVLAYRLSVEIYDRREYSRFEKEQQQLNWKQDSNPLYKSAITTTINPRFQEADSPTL
Description: a4b7 Cell Capture Assay (RPMI8866 cells on MAdCAM-1 Fc coated plates). The class given is cell-based. To be noted: 50% human serum, 1 mM MgCl2, 1 hour incubation, CellTiter-Glo luminescence, read-out: a4B7 cell capture assay RMPI8866-MadCAM EC50. A digest of the protocol: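 RPMI8866 cells (1.0×10^6 cells/mL) in 1 mM MgCl2, 25 mM HEPES, 50% human serum were added to plates coated with human MAdCAM-1–IgG1 Fc (1.0 μg/mL) and exposed to compound (9-point, 0.08–1000 nM, 0.1% DMSO) for 1 h at 37 °C. Bound cells were read by CellTiter-Glo luminescence. IC50 came from 4-parameter fit of normalized % inhibition.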
For orientation: Cellular ATP, detected with luciferase, serves as a proxy for viable cell number.
Consider `Cc1ccc2c(c1C)-c1cc(C)c(F)c(c1)[C@H](CC(=O)O)NC(=O)[C@@H](n1cc(CCN3CC(F)C3)c(C(F)(F)F)cc1=O)c1cc(ccc1F)O2` (relative stereo) [Example 33, [(14R*,17S)-12,19-difluoro-14-{5-[2-(3-fluoroazetidin-1-yl)ethyl]-2-oxo-4-(trifluoromethyl)pyridin-1-yl}-3,4,20-trimethyl-15-oxo-8-oxa-16-azatetracyclo[16.3.1.1^{9,13}.0^{2,7}]tricosa-1(22),2(7),3,5,9,11,13(23),18,20-nonaen-17-yl]acetic acid], for which the concentration for a half-maximal effect (EC50) was 50 nM.

As for `Cc1cc2cc(c1F)[C@H](CC(=O)O)NC(=O)[C@@H](n1cc(CCN3CC(F)C3)c(C(F)(F)F)cc1=O)c1cc(Cl)cc(c1)Oc1ccc(F)c(C)c1-2` (relative stereo) [Example 34, [(14R*,17S)-11-chloro-4,19-difluoro-14-{5-[2-(3-fluoroazetidin-1-yl)ethyl]-2-oxo-4-(trifluoromethyl)pyridin-1-yl}-3,20-dimethyl-15-oxo-8-oxa-16-azatetracyclo[16.3.1.1^{9,13}.0^{2,7}]tricosa-1(22),2(7),3,5,9,11,13(23),18,20-nonaen-17-yl]acetic acid], the EC50 came out at 23 nM.

Regarding `Cc1cccc2c1-c1cc(c(F)c(C(F)(F)F)c1)[C@H](CC(=O)O)NC(=O)[C@@H](n1cc(CCN3CC(F)C3)c(C(F)(F)F)cc1=O)c1cc(ccc1F)CO2` (relative stereo) [Example 35, [(15R*,18S)-13,20-difluoro-15-{5-[2-(3-fluoroazetidin-1-yl)ethyl]-2-oxo-4-(trifluoromethyl)pyridin-1-yl}-3-methyl-16-oxo-21-(trifluoromethyl)-8-oxa-17-azatetracyclo[17.3.1.1^{10,14}.0^{2,7}]tetracosa-1(23),2(7),3,5,10,12,14(24),19,21-nonaen-18-yl]acetic acid], the concentration for a half-maximal effect (EC50) came out at 7.7 nM.

Take `Cc1cc2cc(c1F)[C@H](CC(=O)O)NC(=O)[C@@H](n1cc(CCN3CC(F)C3)c(C(F)(F)F)cc1=O)c1cc(ccc1F)COc1cccc(C)c1-2` (relative stereo) [Example 36, [(15R*,18S)-13,20-difluoro-15-{5-[2-(3-fluoroazetidin-1-yl)ethyl]-2-oxo-4-(trifluoromethyl)pyridin-1-yl}-3,21-dimethyl-16-oxo-8-oxa-17-azatetracyclo[17.3.1.1^{10,14}.0^{2,7}]tetracosa-1(23),2(7),3,5,10,12,14(24),19,21-nonaen-18-yl]acetic acid]: the EC50 was found to be 5.2 nM.

As to `Cc1cccc2c1-c1cc(C(F)F)c(F)c(c1)[C@H](CC(=O)O)NC(=O)[C@@H](n1cc(CCN3CC(F)C3)c(C(F)(F)F)cc1=O)c1cc(ccc1F)O2` (relative stereo) [Example 37, [(14R*,17S)-20-(difluoromethyl)-12,19-difluoro-14-{5-[2-(3-fluoroazetidin-1-yl)ethyl]-2-oxo-4-(trifluoromethyl)pyridin-1-yl}-3-methyl-15-oxo-8-oxa-16-azatetracyclo[16.3.1.1^{9,13}.0^{2,7}]tricosa-1(22),2(7),3,5,9,11,13(23),18,20-nonaen-17-yl]acetic acid], the EC50 amounted to 1.3 nM.

`Cc1cc2cc(c1F)[C@H](CC(=O)O)NC(=O)[C@@H](n1cc(CCN3CC(F)C3)c(C(F)(F)F)cc1=O)c1cc(ccc1F)Oc1nn(C)c(C)c1-2` (relative stereo) [Example 40, rel-[(13S,16S)-11,18-difluoro-13-{5-[2-(3-fluoroazetidin-1-yl)ethyl]-2-oxo-4-(trifluoromethyl)pyridin-1-yl}-3,4,19-trimethyl-14-oxo-7-oxa-4,5,15-triazatetracyclo[15.3.1.1^{8,12}.0^{2,6}]docosa-1(21),2,5,8,10,12(22),17,19-octaen-16-yl]acetic acid]: the EC50 was determined as 42 nM.

Take `Cc1ccc2c(c1C)-c1cc(C)c(F)c(c1)[C@H](CC(=O)O)NC(=O)[C@@H](n1cc(CCN3CC(F)C3)c(C(F)(F)F)cc1=O)c1cc(ccc1F)CO2` (relative stereo) [Example 51, [(15R*,18S)-13,20-difluoro-15-{5-[2-(3-fluoroazetidin-1-yl)ethyl]-2-oxo-4-(trifluoromethyl)pyridin-1-yl}-3,4,21-trimethyl-16-oxo-8-oxa-17-azatetracyclo[17.3.1.1^{10,14}.0^{2,7}]tetracosa-1(23),2(7),3,5,10,12,14(24),19,21-nonaen-18-yl]acetic acid]: the EC50 amounted to 990 nM.

For the compound `Cc1cc2cc(c1F)[C@H](CC(=O)O)NC(=O)[C@@H](n1cc(CCN3CC(F)C3)c(C(F)(F)F)cc1=O)c1cc(ccc1F)Oc1cc(Cl)cc(C)c1-2` (relative stereo) [Example 55, [(14R*,17S)-5-chloro-12,19-difluoro-14-{5-[2-(3-fluoroazetidin-1-yl)ethyl]-2-oxo-4-(trifluoromethyl)pyridin-1-yl}-3,20-dimethyl-15-oxo-8-oxa-16-azatetracyclo[16.3.1.1^{9,13}.0^{2,7}]tricosa-1(22),2(7),3,5,9,11,13(23),18,20-nonaen-17-yl]acetic acid], the EC50 amounted to 4 nM.

In the case of `Cc1cc2cc(c1F)[C@H](CC(=O)O)NC(=O)[C@@H](n1cc(CCN3CC(F)C3)c(C(F)(F)F)cc1=O)c1cc(ccc1F)Oc1cc(N3C4CCC3COC4)cc(C)c1-2` (relative stereo) [Example 56, [(14R*,17S)-12,19-difluoro-14-{5-[2-(3-fluoroazetidin-1-yl)ethyl]-2-oxo-4-(trifluoromethyl)pyridin-1-yl}-3,20-dimethyl-5-{3-oxa-8-azabicyclo[3.2.1]octan-8-yl}-15-oxo-8-oxa-16-azatetracyclo[16.3.1.1^{9,13}.0^{2,7}]tricosa-1(22),2(7),3,5,9,11,13(23),18,20-nonaen-17-yl]acetic acid], the EC50 was determined as 0.97 nM.

Take `Cc1cc2cc(c1F)[C@H](CC(=O)O)NC(=O)[C@@H](n1cc(CCN3CC(F)C3)c(C(F)(F)F)cc1=O)c1cc(ccc1Cl)Oc1cccc(C)c1-2` (relative stereo) [Example 59, [(14R*,17S)-12-chloro-19-fluoro-14-{5-[2-(3-fluoroazetidin-1-yl)ethyl]-2-oxo-4-(trifluoromethyl)pyridin-1-yl}-3,20-dimethyl-15-oxo-8-oxa-16-azatetracyclo[16.3.1.1^{9,13}.0^{2,7}]tricosa-1(22),2(7),3,5,9,11,13(23),18,20-nonaen-17-yl]acetic acid]: the EC50 was 1.2 nM.

As for `Cc1cc2cc(c1F)[C@H](CC(=O)O)NC(=O)[C@@H](n1cc(CCN3CC(F)C3)c(C(F)(F)F)cc1=O)c1cc(ccc1F)COc1cc(C(F)(F)F)cc(C)c1-2` (relative stereo) [Example 65, [(15R*,18S)-13,20-difluoro-15-{5-[2-(3-fluoroazetidin-1-yl)ethyl]-2-oxo-4-(trifluoromethyl)pyridin-1-yl}-3,21-dimethyl-16-oxo-5-(trifluoromethyl)-8-oxa-17-azatetracyclo[17.3.1.1^{10,14}.0^{2,7}]tetracosa-1(23),2(7),3,5,10,12,14(24),19,21-nonaen-18-yl]acetic acid], the EC50 amounted to 77 nM.
